Legend:
[1] = system: SAGPY (Arrowhead (Pygmaea)); test: Postemergence weed control under flooded paddy conditions; type: in vivo, Sagittaria pygmaea; settings: postemergence weeds
How it was run: (§1)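 With weeds 3 to 5 cm tall and rice at the 1.5 to 2.5 leaf stage, containers were flooded and water held 1.5 to 3 cm above soil. Compounds in 50/50 v/v aqueous/acetone went into the flood water at about 0.0313 to 0.500 kg/ha a.i. Effects were visually rated 0–9 against controls after three to four weeks in the greenhouse.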

[2] = system: ECHORC (Watergrass (Calif.)); test: as above; type: in vivo, Echinochloa oryzoides; settings: postemergence weeds
How it was run: as §1

CYPSE (Flatsedge) = test: as above; type: in vivo, Cyperus serotinus; settings: postemergence weeds
How it was run: as §1

[3] = system: IPOSS (Morningglory Spp.); test: Postemergence herbicidal evaluation; type: in vivo, Ipomoea Spp.
How it was run: (§2)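 Scores (0–9) reflect plant stand, vigor, malformation, size, chlorosis and general appearance relative to control, read 4 to 5 weeks after treatment and averaged where tests were repeated. Application: about 0.0156–0.500 kg/ha sprayed at 40 psi onto two-week seedlings.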

GLXMA (Soybean) [4] = test: Preemergence herbicidal evaluation; type: in vivo, Glycine max; settings: rated 4-5 weeks after treatment
Description: Results of herbicide evaluation are expressed on a rating scale (0-9). The scale is based upon a visual observation of plant stand, vigor, malformation, size, chlorosis and overall plant appearance as compared with a control.
The preemergence herbicidal activity of the test compounds of the present invention is exemplified by the following tests in which the seeds of a variety of monocotyledonous and dicotyledonous plants are separately mixed with potting soil and planted on top of approximately one inch of soil in separate pint cups. After planting, the cups are sprayed with the selected aqueous acetone solution containing test compound in sufficient quantity to provide the equivalent of about 0.0156 to 0.500 kg per hectare of test compound per cup. The treated cups are then placed on greenhouse benches, watered and cared for in accordance with conventional greenhouse procedures. From four to five weeks after treatment, the tests are terminated and each cup is examined and rated according to the rating system provided in Example 37.
The compounds evaluated are reported by compound number given in Example 37.

GLXMA (Soybean) [5] = test: Postemergence herbicidal evaluation; type: in vivo, Glycine max
How it was run: as §2

[6] = system: IPOSS (Morningglory Spp.); test: Preemergence herbicidal evaluation; type: in vivo, Ipomoea Spp.; settings: rated 4-5 weeks after treatment
How it was run: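 Seeds were mixed with potting soil and planted on about one inch of soil, then sprayed with test compound in aqueous acetone at about 0.0156 to 0.500 kg per hectare. Plants grew under standard greenhouse care and were visually rated 0-9 against untreated controls 4-5 weeks post-treatment.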

[7] = Rate 0.0313 kg/ha, rated 3 to 4 weeks after treatment
[8] = Rate 0.0625 kg/ha, rated 3 to 4 weeks after treatment
[9] = Rate 0.1250 kg/ha, rated 3 to 4 weeks after treatment
[10] = Rate 0.2500 kg/ha, rated 3 to 4 weeks after treatment
[11] = rate 0.0313 kg/ha, 3-4 weeks after treatment
[12] = rate 0.0625 kg/ha, 3-4 weeks after treatment
[13] = rate 0.1250 kg/ha, 3-4 weeks after treatment
[14] = rate 0.2500 kg/ha, 3-4 weeks after treatment
[15] = rate 0.5000 kg/ha, 3-4 weeks after treatment

SMILES: CCOC(=O)CN1C(=O)C(Cc2ccccc2OC(C)C(=O)O)S/C1=N/c1cc(-n2c(=O)cc(C(F)(F)F)n(C)c2=O)c(F)cc1Cl (stereo not shown) [Compound 114, 5-[o-(1-Carboxyethoxy)benzyl]-2-{{2-chloro-5-[3,6-dihydro-3-methyl-2,6-dioxo-4-(trifluoromethyl)-1(2H)-pyrimidinyl]-4-fluorophenyl}imino}-4-oxo-3-thiazolidineacetic acid, 3-ethyl ester]
- Herbicidal rating SAGPY [1, 7]: 0.0
- Herbicidal rating SAGPY [1, 8]: 0.0
- Herbicidal rating SAGPY [1, 9]: 0.0
- Herbicidal rating SAGPY [1, 10]: 0.0
- Herbicidal rating ECHORC [2, 7]: 0.0
- Herbicidal rating ECHORC [2, 8]: 0.0
- Herbicidal rating ECHORC [2, 9]: 0.0
- Herbicidal rating ECHORC [2, 10]: 0.0
- Herbicidal rating CYPSE (CYPSE (Flatsedge); [7]): 0.0
- Herbicidal rating CYPSE (CYPSE (Flatsedge); [8]): 0.0
- Herbicidal rating CYPSE (CYPSE (Flatsedge); [9]): 0.0
- Herbicidal rating CYPSE (CYPSE (Flatsedge); [10]): 0.0

SMILES: CC1SC(=Nc2cc(N3C(=O)C4=C(CCCC4)C3=O)c(F)cc2Cl)N(C)C1=O (stereo not shown) [Compound 4]
- Herbicidal rating SAGPY [1, 11]: 0.0
- Herbicidal rating SAGPY [1, 12]: 0.0
- Herbicidal rating SAGPY [1, 13]: 0.0
- Herbicidal rating SAGPY [1, 14]: 0.0
- Herbicidal rating SAGPY [1, 15]: 0.0
- IPOSS herbicidal rating ([3]; rate 0.0313 kg/ha): 0.0
- IPOSS herbicidal rating ([3]; rate 0.0625 kg/ha): 0.0
- IPOSS herbicidal rating ([3]; rate 0.1250 kg/ha): 0.0
- IPOSS herbicidal rating ([3]; rate 0.2500 kg/ha): 1.0
- IPOSS herbicidal rating ([3]; rate 0.5000 kg/ha): 4.0
- Herbicidal rating ECHORC [2, 11]: 1.0
- Herbicidal rating ECHORC [2, 12]: 2.0
- Herbicidal rating ECHORC [2, 13]: 3.5
- Herbicidal rating ECHORC [2, 14]: 4.0
- Herbicidal rating ECHORC [2, 15]: 5.0
- GLXMA preemergence herbicidal rating (GLXMA (Soybean) [4]; rate 0.1250 kg/ha): 0.0
- GLXMA preemergence herbicidal rating (GLXMA (Soybean) [4]; rate 0.2500 kg/ha): 2.0
- GLXMA preemergence herbicidal rating (GLXMA (Soybean) [4]; rate 0.5000 kg/ha): 4.0
- GLXMA herbicidal rating (GLXMA (Soybean) [5]; rate 0.0313 kg/ha): 2.0
- GLXMA herbicidal rating (GLXMA (Soybean) [5]; rate 0.0625 kg/ha): 2.5
- GLXMA herbicidal rating (GLXMA (Soybean) [5]; rate 0.1250 kg/ha): 4.5
- GLXMA herbicidal rating (GLXMA (Soybean) [5]; rate 0.2500 kg/ha): 4.5
- GLXMA herbicidal rating (GLXMA (Soybean) [5]; rate 0.5000 kg/ha): 4.5
- IPOSS preemergence herbicidal rating ([6]; rate 0.1250 kg/ha): 0.0
- IPOSS preemergence herbicidal rating ([6]; rate 0.2500 kg/ha): 2.0
- IPOSS preemergence herbicidal rating ([6]; rate 0.5000 kg/ha): 9.0
- Herbicidal rating CYPSE (CYPSE (Flatsedge); [11]): 0.0
- Herbicidal rating CYPSE (CYPSE (Flatsedge); [12]): 0.0
- Herbicidal rating CYPSE (CYPSE (Flatsedge); [13]): 0.0
- Herbicidal rating CYPSE (CYPSE (Flatsedge); [14]): 0.0
- Herbicidal rating CYPSE (CYPSE (Flatsedge); [15]): 0.0
